Activity calls are given as the source filed them. No rule for the calls is given here.
Tested on: CCRIS mutagenicity, Ames/micronucleus/aberration tests
Experiment: CCRIS mutagenicity studies
[1] = Test System: AMES SALMONELLA TYPHIMURIUM, Strain/Indicator: TA98, Metabolic Activation: RAT, LIVER, S-9, AROCLOR 1254, Method: STANDARD PLATE
[2] = Test System: AMES SALMONELLA TYPHIMURIUM, Strain/Indicator: TA100, Metabolic Activation: NONE, Method: STANDARD PLATE
[3] = Test System: AMES SALMONELLA TYPHIMURIUM, Strain/Indicator: TA1535, Metabolic Activation: RAT, LIVER, S-9, AROCLOR 1254, Method: STANDARD PLATE
[4] = Test System: MOUSE LYMPHOMA, Strain/Indicator: L5178Y (TK+/TK-), Metabolic Activation: NONE, Method: SUSPENSION/PLATE
[5] = Test System: AMES SALMONELLA TYPHIMURIUM, Strain/Indicator: TA98, Metabolic Activation: NONE, Method: PREINCUBATION
[6] = Test System: AMES SALMONELLA TYPHIMURIUM, Strain/Indicator: TA100, Metabolic Activation: NONE, Method: PREINCUBATION

Structure (SMILES): CCCCOC(=O)CC(CC(=O)OCCCC)(OC(C)=O)C(=O)OCCCC
- mutagenic call (Test System: AMES SALMONELLA TYPHIMURIUM, Strain/Indicator: TA98, Metabolic Activation: HAMSTER, LIVER, S-9, AROCLOR 1254, Method: STANDARD PLATE): inactive; negative
- mutagenic call (Test System: AMES SALMONELLA TYPHIMURIUM, Strain/Indicator: TA98, Metabolic Activation: NONE, Method: STANDARD PLATE): inactive; negative
- mutagenic call [1]: inactive; negative
- mutagenic call (Test System: AMES SALMONELLA TYPHIMURIUM, Strain/Indicator: TA100, Metabolic Activation: HAMSTER, LIVER, S-9, AROCLOR 1254, Method: STANDARD PLATE): inactive; negative
- mutagenic call [2]: inactive; negative
- mutagenic call (Test System: AMES SALMONELLA TYPHIMURIUM, Strain/Indicator: TA100, Metabolic Activation: RAT, LIVER, S-9, AROCLOR 1254, Method: STANDARD PLATE): inactive; negative
- mutagenic call (Test System: AMES SALMONELLA TYPHIMURIUM, Strain/Indicator: TA1535, Metabolic Activation: HAMSTER, LIVER, S-9, AROCLOR 1254, Method: STANDARD PLATE): inactive; negative
- mutagenic call (Test System: AMES SALMONELLA TYPHIMURIUM, Strain/Indicator: TA1535, Metabolic Activation: NONE, Method: STANDARD PLATE): inactive; negative
- mutagenic call [3]: inactive; negative
- mutagenic call (Test System: AMES SALMONELLA TYPHIMURIUM, Strain/Indicator: TA1537, Metabolic Activation: HAMSTER, LIVER, S-9, AROCLOR 1254, Method: STANDARD PLATE): inactive; negative
- mutagenic call (Test System: AMES SALMONELLA TYPHIMURIUM, Strain/Indicator: TA1537, Metabolic Activation: NONE, Method: STANDARD PLATE): inactive; negative
- mutagenic call (Test System: AMES SALMONELLA TYPHIMURIUM, Strain/Indicator: TA1537, Metabolic Activation: RAT, LIVER, S-9, AROCLOR 1254, Method: STANDARD PLATE): inactive; negative
- mutagenic call (Test System: AMES SALMONELLA TYPHIMURIUM, Strain/Indicator: TA1538, Metabolic Activation: HAMSTER, LIVER, S-9, AROCLOR 1254, Method: STANDARD PLATE): inactive; negative
- mutagenic call (Test System: AMES SALMONELLA TYPHIMURIUM, Strain/Indicator: TA1538, Metabolic Activation: NONE, Method: STANDARD PLATE): inactive; negative
- mutagenic call (Test System: AMES SALMONELLA TYPHIMURIUM, Strain/Indicator: TA1538, Metabolic Activation: RAT, LIVER, S-9, AROCLOR 1254, Method: STANDARD PLATE): inactive; negative
- mutagenic call [4]: inactive; negative. reevaluation of results: inconclusive
- mutagenic call (Test System: MOUSE LYMPHOMA, Strain/Indicator: L5178Y (TK+/TK-), Metabolic Activation: RAT, LIVER, S-9, AROCLOR 1254, Method: SUSPENSION/PLATE): inactive; negative. reevaluation of results: negative

Structure (SMILES): Oc1ccc(-c2ccccc2)cc1
- mutagenic call [1]: active; positive
- mutagenic call [3]: inactive; negative

Structure (SMILES): Cn1c(N)nc2nc3cccnc3cc21
- mutagenic call (Test System: AMES SALMONELLA TYPHIMURIUM, Strain/Indicator: TA98, Metabolic Activation: RAT, LIVER, S-9, AROCLOR 1254A, Method: STANDARD PLATE): inactive; negative
- mutagenic call (Test System: AMES SALMONELLA TYPHIMURIUM, Strain/Indicator: YG1024, Metabolic Activation: RAT, LIVER, S-9, AROCLOR 1254A, Method: STANDARD PLATE): active; positive

Structure (SMILES): COC(=O)c1cc2c([nH]c3ccc([N+](=O)[O-])cc32)c(-c2ccccc2)n1
- mutagenic call (Test System: AMES SALMONELLA TYPHIMURIUM, Strain/Indicator: TA98(NR), Metabolic Activation: NONE, Method: STANDARD PLATE): inactive; negative
- mutagenic call (Test System: AMES SALMONELLA TYPHIMURIUM, Strain/Indicator: TA98(NR), Metabolic Activation: RAT, LIVER, S-9, AROCLOR 1254, Method: STANDARD PLATE): active; positive

Structure (SMILES): O=S(=O)(O)OOS(=O)(=O)O
- mutagenic call (Test System: AMES SALMONELLA TYPHIMURIUM, Strain/Indicator: TA97, Metabolic Activation: NONE, Method: PREINCUBATION): inactive; negative
- mutagenic call (Test System: AMES SALMONELLA TYPHIMURIUM, Strain/Indicator: TA97, Metabolic Activation: RAT, LIVER, S-9, AROCLOR 1254, Method: PREINCUBATION): inactive; negative
- mutagenic call [5]: inactive; negative
- mutagenic call (Test System: AMES SALMONELLA TYPHIMURIUM, Strain/Indicator: TA98, Metabolic Activation: RAT, LIVER, S-9, KC 500, Method: PREINCUBATION): inactive; negative
- mutagenic call [6]: inactive; negative
- mutagenic call (Test System: AMES SALMONELLA TYPHIMURIUM, Strain/Indicator: TA100, Metabolic Activation: RAT, LIVER, S-9, KC 500, Method: PREINCUBATION): inactive; negative
- mutagenic call (Test System: AMES SALMONELLA TYPHIMURIUM, Strain/Indicator: TA102, Metabolic Activation: NONE, Method: PREINCUBATION): inactive; negative
- mutagenic call (Test System: AMES SALMONELLA TYPHIMURIUM, Strain/Indicator: TA102, Metabolic Activation: RAT, LIVER, S-9, AROCLOR 1254, Method: PREINCUBATION): inactive; negative
- mutagenic call (Test System: AMES SALMONELLA TYPHIMURIUM, Strain/Indicator: TA1535, Metabolic Activation: NONE, Method: PREINCUBATION): inactive; negative
- mutagenic call (Test System: AMES SALMONELLA TYPHIMURIUM, Strain/Indicator: TA1535, Metabolic Activation: RAT, LIVER, S-9, KC 500, Method: PREINCUBATION): inactive; negative
- mutagenic call (Test System: AMES SALMONELLA TYPHIMURIUM, Strain/Indicator: TA1537, Metabolic Activation: NONE, Method: PREINCUBATION): inactive; negative
- mutagenic call (Test System: AMES SALMONELLA TYPHIMURIUM, Strain/Indicator: TA1537, Metabolic Activation: RAT, LIVER, S-9, KC 500, Method: PREINCUBATION): inactive; negative
- mutagenic call (Test System: AMES SALMONELLA TYPHIMURIUM, Strain/Indicator: TA1538, Metabolic Activation: NONE, Method: PREINCUBATION): inactive; negative
- mutagenic call (Test System: AMES SALMONELLA TYPHIMURIUM, Strain/Indicator: TA1538, Metabolic Activation: RAT, LIVER, S-9, KC 500, Method: PREINCUBATION): inactive; negative
- mutagenic call (Test System: E. COLI, Strain/Indicator: WP2 UVRA, Metabolic Activation: NONE, Method: PREINCUBATION): inactive; negative
- mutagenic call (Test System: E. COLI, Strain/Indicator: WP2 UVRA, Metabolic Activation: RAT, LIVER, S-9, KC 500, Method: PREINCUBATION): inactive; negative

Structure (SMILES): CCCC(=O)Nc1snc2ccccc12
- mutagenic call [2]: inactive; negative
- mutagenic call (Test System: AMES SALMONELLA TYPHIMURIUM, Strain/Indicator: TA100, Metabolic Activation: S-9, Method: STANDARD PLATE): inactive; negative

Structure (SMILES): CCN(CC)C(=S)S
- mutagenic call (End Point: IN VITRO CHROMOSOMAL ABERRATIONS, Test System: CHO CELLS, Metabolic Activation: RAT, LIVER, S-9, AROCLOR 1254): inactive; negative
- mutagenic call (End Point: IN VITRO CHROMOSOMAL ABERRATIONS, Test System: TK6 HUMAN LYMPHOBLASTS, Metabolic Activation: NONE): active; positive (weak response)
- mutagenic call [4]: active; positive

Structure (SMILES): CCc1ccccc1[N+](=O)[O-]
- mutagenic call [5]: inactive; negative
- mutagenic call (Test System: AMES SALMONELLA TYPHIMURIUM, Strain/Indicator: TA98, Metabolic Activation: RAT, LIVER, S-9, KANECHLOR 500, Method: PREINCUBATION): inactive; negative
- mutagenic call [6]: inactive; negative
- mutagenic call (Test System: AMES SALMONELLA TYPHIMURIUM, Strain/Indicator: TA100, Metabolic Activation: RAT, LIVER, S-9, KANECHLOR 500, Method: PREINCUBATION): inactive; negative

Structure (SMILES): CC(=O)OC[C@]12CCC(C)=C[C@H]1O[C@@H]1[C@H](O)[C@@H](OC(C)=O)[C@@]2(C)[C@]12CO2
- mutagenic call (Test System: AMES SALMONELLA TYPHIMURIUM, Strain/Indicator: TA98, Metabolic Activation: RAT, LIVER, MICROSOMES, PHENOBARBITAL, Method: STANDARD PLATE): inactive; negative
- mutagenic call [2]: inactive; negative
- mutagenic call (Test System: AMES SALMONELLA TYPHIMURIUM, Strain/Indicator: TA100, Metabolic Activation: RAT, LIVER, MICROSOMES, PHENOBARBITAL, Method: STANDARD PLATE): inactive; negative

Structure (SMILES): Oc1cc(O)cc(/C=C/c2ccc(O)c(O)c2)c1
- mutagenic call (Test System: Ames Salmonella typhimurium, Strain/Indicator: TA102, Metabolic Activation: None, Method: Preincubation): inactive; negative
- mutagenic call (Test System: Ames Salmonella typhimurium, Strain/Indicator: TA102, Metabolic Activation: Rat, Liver, S-9, Aroclor 1254 in 0.154 M KCl, Method: Preincubation): inactive; negative

Structure (SMILES): COc1ccc(O)c2c(=O)c3c(OC)cc4c(c3oc12)[C@@H]1C=CO[C@@H]1O4
- mutagenic call (Test System: AMES SALMONELLA TYPHIMURIUM, Strain/Indicator: TA98, Metabolic Activation: RAT, LIVER, S-9, PHENOBARBITAL, Method: STANDARD PLATE): inactive; negative
- mutagenic call (Test System: AMES SALMONELLA TYPHIMURIUM, Strain/Indicator: TA100, Metabolic Activation: RAT, LIVER, S-9, PHENOBARBITAL, Method: STANDARD PLATE): active; positive

Reference: PubChem BioAssay AID1259407 (Chemical Carcinogenesis Research Information System (CCRIS), 2018)
